Measurements from patent publication US8298781B2, “Compositions and methods for characterizing and regulating olfactory sensation” (Duke University, priority 2007, dated 2012).

System: human subjects
Assay: Human olfactory psychophysics: valence rating by OR7D4 genotype
Format: in vivo
Details: for valence rating, OR7D4 RT/WM vs RT/RT subjects: 7-point scale, two concentrations pooled; for valence rating, RT/S84N subjects vs RT/RT controls: N=7 RT/S84N; for valence rating of OR7D4 WM/WM subjects relative to solvent propylene glycol: N=10 WM/WM; for valence rating, RT/P79L subjects vs RT/RT controls: N=30 RT/P79L
Experimental: Human olfactory psychophysics. All human subjects gave informed consent to participate in this study and were tested in a well-ventilated room. Normal human subjects (n=412; 218 female, 194 male; median age 34, age range 19-75) were pre-screened to exclude pregnant women and those with medical conditions causing general impairment of the sense of smell. All subjects completed two replicates of the test separated by at least 4 days. Odors were presented in amber vials as previously described (see, e.g., Keller, A., et al., Nat Neurosci 7, 337-338 (2004); herein incorporated by reference in its entirety) using bar-coded symbols to ensure that subjects were blind to the identity of all odors. The intensity and valence of 66 odors at two concentrations (“high” and “low”) and two solvents was rated using a 7-point scale. Thresholds were calculated using the single staircase method with seven reversals (see, e.g., Doty, R. L., et al., Chem Senses 20, 645-656 (1995); Doty, R. L. & Laing, D. G. in Handbook of Olfaction and Gustation (ed. Doty, R. L.) pp. 203-228 (Marcel Dekker, Inc., New York, 2003); each of which are herein incorporated by reference in their entireties). Threshold tests included both steroids as binary dilutions from […] (binary dilution 6) to 1: 134,217,728 (binary dilution 27). Subjects who could not reliably distinguish a 1:64 dilution of androstenone and androstadienone from solvent were operationally defined as anosmic to these odorous steroids, although it could not be excluded that these subjects could detect higher concentrations of these steroids (see, e.g., Bremner, E. A., et al., Chem Senses 28, 423-432 (2003); herein incorporated by reference in its entirety). Odor profiling used the method established by Dravnieks, et al. (see, e.g., Dravnieks, A., et al., Science 218, 799-801 (1982); herein incorporated by reference in its entirety).
Stimuli for olfactory psychophysics. All odors were presented as one ml of an odor dilution in either propylene glycol or paraffin oil in 20 ml amber glass vials. All of these compounds were used in the intensity and valence rating portion of the smell test.
Olfactory ratings. The intensity and valence of 66 odors were rated at two different concentrations (high and low) and the intensity and valence of the two solvents (paraffin oil and propylene glycol) was rated three times. Prior to these ratings, six stimuli that represented the spectrum of intensity and valence of the stimuli used in the study were presented to allow the subjects to calibrate the usage of the scale. The subjects were unaware that the six first stimuli served that purpose. After the rating of the 66 odors at two concentrations and the rating of the solvents, 15 stimuli that were presented earlier in the experiment were repeated to test for the effect of adaptation and olfactory fatigue on the ratings. The subjects were not aware that the last 15 stimuli served this purpose. These 15 stimuli and the six first stimuli were not included in the analysis presented here. […] The 15 control stimuli and their concentrations were as follows:
In addition there was a button on the screen labeled “I can't smell anything” and a button labeled “Don't Know”. If the “Don't Know” button was pressed, no rating was recorded. If the “I can't smell anything” button was pressed, a 0 was recorded for the intensity rating and no rating was recorded for the valence rating. The other ratings were transformed according to the following scheme:
• Extremely Weak=1 • Very Weak=2 • Slightly Weak=3 • Neither Weak nor Strong=4 • Slightly Strong=5 • Very Strong=6 • Extremely Strong=7 Valence Rating • Extremely Unpleasant=1 • Very Unpleasant=2 • Slightly Unpleasant=3 • Neither Unpleasant nor Pleasant=4 • Slightly Pleasant=5 • Very Pleasant=6 • Extremely Pleasant=7
Averages for the ratings of the different genotypes were calculated. […]

Row | SMILES | valence rating, OR7D4 RT/WM vs RT/RT subjects | valence rating, RT/S84N subjects vs RT/RT controls | valence rating of OR7D4 WM/WM subjects relative to solvent propylene glycol | valence rating, RT/P79L subjects vs RT/RT controls
1 | C[C@@]12C=CC[C@H]1[C@@H]1CCC3=CC(=O)CC[C@]3(C)[C@H]1CC2 [androstadienone, androsta-4,16-dien-3-one] | more pleasant | less pleasant | more unpleasant than the solvent | more pleasant
2 | C[C@]12CCC(=O)C[C@@H]1CC[C@@H]1[C@@H]2CC[C@]2(C)C=CC[C@@H]12 [androstenone, 5α-androst-16-en-3-one] | more pleasant | less pleasant | more unpleasant than the solvent | more pleasant
